In ChEMBL document CHEMBL1212917, “Substituted E-3-(3-indolylmethylene)-1,3-dihydroindol-2-ones with antitumor activity. In depth study of the effect on growth of breast cancer cells” (2010):

test system: NSCLC; assay: Growth inhibition of human NSCLC cells after 48 hrs; assay type: functional; details: not given

Row | Structure (SMILES) | GI50 [µM] | LC50 [µM]
1 | COc1cc2c(/C=C3/C(=O)N(C)c4ccccc43)c(Cl)n(C)c2cc1C | 0.58 | 
2 | COc1cc2c(cc1C)NC(=O)/C2=C/c1c(Cl)n(C)c2cc(C)c(OC)cc12 | 34.7 | 
3 | COc1ccc2c(c1)/C(=C\c1c(Cl)[nH]c3ccc(N(C)C)cc13)C(=O)N2 | 3.02 | 58.9
4 | COc1cc2c(/C=C3/C(=O)Nc4ccc(Br)cc43)c(Cl)n(C)c2cc1C | 1.91 | 37.1
5 | CN(C)c1ccc2[nH]c(Cl)c(/C=C3/C(=O)Nc4ccc(O)cc43)c2c1 | 5.13 | 95.5

test system: not listed separately; assay: Growth inhibition of human renal cancer cells after 48 hrs; assay type: functional; details: Cancer cell lines

Row | Structure (SMILES) | GI50 [µM]
6 | COc1cc2c(/C=C3/C(=O)N(C)c4ccccc43)c(Cl)n(C)c2cc1C | 0.33
7 | COc1cc2c(cc1C)NC(=O)/C2=C/c1c(Cl)n(C)c2cc(C)c(OC)cc12 | 41.7
8 | COc1ccc2c(c1)/C(=C\c1c(Cl)[nH]c3ccc(N(C)C)cc13)C(=O)N2 | 3.02
9 | COc1cc2c(/C=C3/C(=O)Nc4ccc(Br)cc43)c(Cl)n(C)c2cc1C | 1.7
10 | CN(C)c1ccc2[nH]c(Cl)c(/C=C3/C(=O)Nc4ccc(O)cc43)c2c1 | 5.13

same assay, conditions: Cancer cell lines, read-out: LC50 (the source's name)

Row | Structure (SMILES) | CC50 [µM]
11 | COc1cc2c(/C=C3/C(=O)N(C)c4ccccc43)c(Cl)n(C)c2cc1C | 79.4
12 | COc1ccc2c(c1)/C(=C\c1c(Cl)[nH]c3ccc(N(C)C)cc13)C(=O)N2 | 52.5
13 | COc1cc2c(/C=C3/C(=O)Nc4ccc(Br)cc43)c(Cl)n(C)c2cc1C | 26.9
14 | CN(C)c1ccc2[nH]c(Cl)c(/C=C3/C(=O)Nc4ccc(O)cc43)c2c1 | 91.2

test system: not listed separately; assay: Growth inhibition of human melanoma cells after 48 hrs; assay type: functional; details: Melanoma cell

Row | Structure (SMILES) | GI50 [µM]
15 | COc1cc2c(/C=C3/C(=O)N(C)c4ccccc43)c(Cl)n(C)c2cc1C | 0.34
16 | COc1cc2c(cc1C)NC(=O)/C2=C/c1c(Cl)n(C)c2cc(C)c(OC)cc12 | 15.1
17 | COc1ccc2c(c1)/C(=C\c1c(Cl)[nH]c3ccc(N(C)C)cc13)C(=O)N2 | 3.55
18 | COc1cc2c(/C=C3/C(=O)Nc4ccc(Br)cc43)c(Cl)n(C)c2cc1C | 1.55
19 | CN(C)c1ccc2[nH]c(Cl)c(/C=C3/C(=O)Nc4ccc(O)cc43)c2c1 | 5.25

same assay, conditions: Melanoma cell, read-out: LC50 (the source's name)

Row | Structure (SMILES) | CC50 [µM]
20 | COc1cc2c(/C=C3/C(=O)N(C)c4ccccc43)c(Cl)n(C)c2cc1C | 69.2
21 | COc1cc2c(cc1C)NC(=O)/C2=C/c1c(Cl)n(C)c2cc(C)c(OC)cc12 | 57.5
22 | COc1ccc2c(c1)/C(=C\c1c(Cl)[nH]c3ccc(N(C)C)cc13)C(=O)N2 | 44.7
23 | COc1cc2c(/C=C3/C(=O)Nc4ccc(Br)cc43)c(Cl)n(C)c2cc1C | 31.6
24 | CN(C)c1ccc2[nH]c(Cl)c(/C=C3/C(=O)Nc4ccc(O)cc43)c2c1 | 79.4

test system: not listed separately; assay: Growth inhibition of human prostate cancer cells after 48 hrs; assay type: functional; details: Cancer cell lines

Row | Structure (SMILES) | GI50 [µM]
25 | COc1cc2c(/C=C3/C(=O)N(C)c4ccccc43)c(Cl)n(C)c2cc1C | 0.39
26 | COc1cc2c(cc1C)NC(=O)/C2=C/c1c(Cl)n(C)c2cc(C)c(OC)cc12 | 22.4
27 | COc1ccc2c(c1)/C(=C\c1c(Cl)[nH]c3ccc(N(C)C)cc13)C(=O)N2 | 2.88
28 | COc1cc2c(/C=C3/C(=O)Nc4ccc(Br)cc43)c(Cl)n(C)c2cc1C | 1.55
29 | CN(C)c1ccc2[nH]c(Cl)c(/C=C3/C(=O)Nc4ccc(O)cc43)c2c1 | 8.91

same assay, conditions: Cancer cell lines, read-out: LC50 (the source's name)

Row | Structure (SMILES) | CC50 [µM]
30 | COc1cc2c(/C=C3/C(=O)N(C)c4ccccc43)c(Cl)n(C)c2cc1C | 66.1
31 | COc1ccc2c(c1)/C(=C\c1c(Cl)[nH]c3ccc(N(C)C)cc13)C(=O)N2 | 50.1
32 | COc1cc2c(/C=C3/C(=O)Nc4ccc(Br)cc43)c(Cl)n(C)c2cc1C | 26.3

test system: not listed separately; assay: Growth inhibition of human Ovarian cancer cells after 48 hrs; assay type: functional; details: Cancer cell lines

Row | Structure (SMILES) | GI50 [µM]
33 | COc1cc2c(/C=C3/C(=O)N(C)c4ccccc43)c(Cl)n(C)c2cc1C | 0.38
34 | COc1cc2c(cc1C)NC(=O)/C2=C/c1c(Cl)n(C)c2cc(C)c(OC)cc12 | 30.2
35 | COc1ccc2c(c1)/C(=C\c1c(Cl)[nH]c3ccc(N(C)C)cc13)C(=O)N2 | 3.39
36 | COc1cc2c(/C=C3/C(=O)Nc4ccc(Br)cc43)c(Cl)n(C)c2cc1C | 3.47
37 | CN(C)c1ccc2[nH]c(Cl)c(/C=C3/C(=O)Nc4ccc(O)cc43)c2c1 | 7.24

same assay, conditions: Cancer cell lines, read-out: LC50 (the source's name)

Row | Structure (SMILES) | CC50 [µM]
38 | COc1cc2c(/C=C3/C(=O)N(C)c4ccccc43)c(Cl)n(C)c2cc1C | 95.5
39 | COc1ccc2c(c1)/C(=C\c1c(Cl)[nH]c3ccc(N(C)C)cc13)C(=O)N2 | 50.1
40 | COc1cc2c(/C=C3/C(=O)Nc4ccc(Br)cc43)c(Cl)n(C)c2cc1C | 43.6

test system: not listed separately; assay: Growth inhibition of human CNS cancer cells after 48 hrs; assay type: functional; details: Cancer cell lines

Row | Structure (SMILES) | GI50 [µM]
41 | COc1cc2c(/C=C3/C(=O)N(C)c4ccccc43)c(Cl)n(C)c2cc1C | 0.2
42 | COc1cc2c(cc1C)NC(=O)/C2=C/c1c(Cl)n(C)c2cc(C)c(OC)cc12 | 26.9
43 | COc1ccc2c(c1)/C(=C\c1c(Cl)[nH]c3ccc(N(C)C)cc13)C(=O)N2 | 2.09
44 | COc1cc2c(/C=C3/C(=O)Nc4ccc(Br)cc43)c(Cl)n(C)c2cc1C | 0.93
45 | CN(C)c1ccc2[nH]c(Cl)c(/C=C3/C(=O)Nc4ccc(O)cc43)c2c1 | 3.8

same assay, conditions: Cancer cell lines, read-out: LC50 (the source's name)

Row | Structure (SMILES) | CC50 [µM]
46 | COc1cc2c(/C=C3/C(=O)N(C)c4ccccc43)c(Cl)n(C)c2cc1C | 74.1
47 | COc1ccc2c(c1)/C(=C\c1c(Cl)[nH]c3ccc(N(C)C)cc13)C(=O)N2 | 32.4
48 | COc1cc2c(/C=C3/C(=O)Nc4ccc(Br)cc43)c(Cl)n(C)c2cc1C | 38.9

test system: not listed separately; assay: Growth inhibition of human colon cancer cells after 48 hrs; assay type: functional; details: Cancer cell lines

Row | Structure (SMILES) | GI50 [µM]
49 | COc1cc2c(/C=C3/C(=O)N(C)c4ccccc43)c(Cl)n(C)c2cc1C | 0.2
50 | COc1cc2c(cc1C)NC(=O)/C2=C/c1c(Cl)n(C)c2cc(C)c(OC)cc12 | 22.9
51 | COc1ccc2c(c1)/C(=C\c1c(Cl)[nH]c3ccc(N(C)C)cc13)C(=O)N2 | 1.55
52 | COc1cc2c(/C=C3/C(=O)Nc4ccc(Br)cc43)c(Cl)n(C)c2cc1C | 1.55
53 | CN(C)c1ccc2[nH]c(Cl)c(/C=C3/C(=O)Nc4ccc(O)cc43)c2c1 | 3.89

same assay, conditions: Cancer cell lines, read-out: LC50 (the source's name)

Row | Structure (SMILES) | CC50 [µM]
54 | COc1cc2c(/C=C3/C(=O)N(C)c4ccccc43)c(Cl)n(C)c2cc1C | 72.4
55 | COc1ccc2c(c1)/C(=C\c1c(Cl)[nH]c3ccc(N(C)C)cc13)C(=O)N2 | 30.2
56 | COc1cc2c(/C=C3/C(=O)Nc4ccc(Br)cc43)c(Cl)n(C)c2cc1C | 29.5
57 | CN(C)c1ccc2[nH]c(Cl)c(/C=C3/C(=O)Nc4ccc(O)cc43)c2c1 | 69.2

test system: not listed separately; assay: Growth inhibition of human leukemia cells after 48 hrs; assay type: functional; details: Leukemia cell

Row | Structure (SMILES) | GI50 [µM]
58 | COc1cc2c(/C=C3/C(=O)N(C)c4ccccc43)c(Cl)n(C)c2cc1C | 0.25
59 | COc1cc2c(cc1C)NC(=O)/C2=C/c1c(Cl)n(C)c2cc(C)c(OC)cc12 | 18.2
60 | COc1ccc2c(c1)/C(=C\c1c(Cl)[nH]c3ccc(N(C)C)cc13)C(=O)N2 | 1.62
61 | COc1cc2c(/C=C3/C(=O)Nc4ccc(Br)cc43)c(Cl)n(C)c2cc1C | 2.51
62 | CN(C)c1ccc2[nH]c(Cl)c(/C=C3/C(=O)Nc4ccc(O)cc43)c2c1 | 2.24

same assay, conditions: Leukemia cell, read-out: LC50 (the source's name)

Row | Structure (SMILES) | CC50 [µM]
63 | COc1cc2c(/C=C3/C(=O)N(C)c4ccccc43)c(Cl)n(C)c2cc1C | 46.8
64 | COc1cc2c(cc1C)NC(=O)/C2=C/c1c(Cl)n(C)c2cc(C)c(OC)cc12 | 97.7
65 | COc1ccc2c(c1)/C(=C\c1c(Cl)[nH]c3ccc(N(C)C)cc13)C(=O)N2 | 72.4

test system: not listed separately; assay: Growth inhibition of human breast cancer cells after 48 hrs; assay type: functional; details: Cancer cell lines

Row | Structure (SMILES) | GI50 [µM]
66 | COc1cc2c(/C=C3/C(=O)N(C)c4ccccc43)c(Cl)n(C)c2cc1C | 0.28
67 | COc1cc2c(cc1C)NC(=O)/C2=C/c1c(Cl)n(C)c2cc(C)c(OC)cc12 | 18.6
68 | COc1ccc2c(c1)/C(=C\c1c(Cl)[nH]c3ccc(N(C)C)cc13)C(=O)N2 | 1.15
69 | COc1cc2c(/C=C3/C(=O)Nc4ccc(Br)cc43)c(Cl)n(C)c2cc1C | 0.95
70 | CN(C)c1ccc2[nH]c(Cl)c(/C=C3/C(=O)Nc4ccc(O)cc43)c2c1 | 2.88

same assay, conditions: Cancer cell lines, read-out: LC50 (the source's name)

Row | Structure (SMILES) | CC50 [µM]
71 | COc1cc2c(/C=C3/C(=O)N(C)c4ccccc43)c(Cl)n(C)c2cc1C | 95.5
72 | COc1cc2c(cc1C)NC(=O)/C2=C/c1c(Cl)n(C)c2cc(C)c(OC)cc12 | 95.5
73 | COc1ccc2c(c1)/C(=C\c1c(Cl)[nH]c3ccc(N(C)C)cc13)C(=O)N2 | 55
74 | COc1cc2c(/C=C3/C(=O)Nc4ccc(Br)cc43)c(Cl)n(C)c2cc1C | 31.6
